11 compounds from patent US20260199367A1, “PLK1 DEGRADATION INDUCING COMPOUNDS WITH INCREASED RIGIDITY” (UPPTHERA, INC., priority 2022, published 2026) can be followed below.

Assay type in all cases: cell-based
One assay relates to NCI-H69 (H69) cell line. Nature of the assay: Cell viability assay for NCI-H69 cell line. To be noted: Homo sapiens, NCI-H69, 120 h, 5 days, EZ-Cytox, 0.46-3000 nM. The text has this:
(§1) The NCI-H69 (hereafter H69) and NCI-H526 (hereafter H526) cell lines were purchased from Korea Cell Line Bank (KCLB, Seoul, Korea). For cell culture, RPMI 1640 (Gibco, Cat. No. 22400-089; Lot. No. 2537146), FBS (Gibco, Cat. No. 16000-044; Lot. No. 2511328P), Penicillin/Streptomycin (PS) (Gibco, Cat. No. 15140-122; Lot. No. 2441887), 75T cell culture flask (SPL, Cat. No. 71075), 175T cell culture flask (SPL, Cat. No. 71175), 96-well cell culture plate (SPL, Cat. No. 30096), PBS pH 7.4 (Gibco, Cat. No. 10010-023; Lot. No. 2509235), TrypLE™ Express (Gibco, Cat. No. 12605-010; Lot. No. 2323417), Cell Counter (Hematocytometer)(As one, Cat. No. 4-458-01), and 0.4% Trypan Blue Solution (DYNEBIO, Cat. No. CBT3710; Lot. No. 20221111) were used.
(§2) The compounds of Examples were completely dissolved in DMSO (Sigma-Aldrich Cat. No. D2438, Lot. No. RNBL7287) and used in the experiment. 3×10^4 cells were seeded for each well of a 96-well plate (SPL), and the cells were cultured in total volume of 150 μl. Each compound was diluted 3-folds from the highest concentration of 3000 nM to the lowest concentration of 0.46 nM. After treating the compound to each well to make the total volume of 200 μl, it was cultured in a CO2 incubator (Thermo Fisher Science, Cat. No. 4111) for 5 days. Then, after treating EZ-Cytox (DOGEN, Cat.NO. EZ-3000, Lot. No. DLS2308) 20 μl in each well, it was cultured in CO2 incubator for 4 hours. The absorbance of the completely cultured sample was measured by setting the wavelength of a plate reader (BMG Labtech, CLARIOstar Plus) to […], and was measured after shaking for 3 minutes in a plate reader before measurement.
(§3) (A: IC50 is less than 20 nM, B: IC50 is 50 nM or less, C: IC50 is 100 nM or less)

The next assay deals with T1, PLK1 (Homo sapiens, UniProt P53350).
T1 construct: endogenous in cells; host or cells: HeLa LgBit (PLK1-HiBit KI): HeLa cells stably expressing LgBit, with CRISPR/Cas9 knock-in of HiBit at the endogenous PLK1 locus
In words: Luciferase assay for PLK1 in HeLa LgBit (PLK1-HiBit KI) cell line. To be noted: released after thymidine block, compound 300 nM, luminescence after 9 hours. How it is done: A HeLa cell line in which the LgBit vector was transfected and expressed stably was prepared. Then, after constructing gRNA and donor to express the HiBit amino acid sequence behind the C-terminal of the PLK1 gene, which was inherent in the cell, it was inserted into the cell together with a vector capable of expressing CRISPR/Cas9. Only the cells in which the insertion was completed and knock-in had progressed were selected, sub-cultured and used.
The compounds of Examples were completely dissolved in DMSO (Sigma-Aldrich Cat. No. D2438, Lot. No. RNBL5438) and used in the experiment.
In the case of HeLa LgBit (Plk1-HiBit KI), the compounds were treated after being released after thymidine block, and the process was as follows. Thymidine (Sigma-Aldrich Cat. No. T9250-5G) was completely dissolved in ddH2O and used in the experiment. For thymidine block, the products were treated with 2 mM of thymidine and then incubated for 24 hours. For release and chemical treatment, the medium was suctioned and washed with 1×PBS. TrypLE™ was added and incubated in 37° C. CO2 incubator (Thermo Fisher Science, Cat. No. 4111) for 5 mins. Cells neutralized by adding complete media were counted through a counter. For each well of a 96-well culture plate (SPL), 3.3×10^4 cells and a total medium volume of 150 μl were seeded and incubated in a CO2 incubator.
Each cell line was incubated in a CO2 incubator for 18 hours, and Endurazine (Promega, Cat. No. N257B) was added to each well to make up 4% of the total volume. After adding compounds of Examples in a 96-well white plate (SPL) to a concentration of 300 nM, the wavelength of the plate reader (BMG Labtech, CLARIOstar Plus) was set to 470-480 nM, and then the luminescence was tracked in real time.

Assay [1] concerns NCI-H526 (H526) cell line. In words: Cell viability assay for NCI-H526 cell line. To be noted: Homo sapiens, NCI-H526, 120 h, 5 days, EZ-Cytox, 0.46-3000 nM.
Description: as §1, §2, §3

Bounds are passed on as bounds.

T1 sequence (P53350 whole entry): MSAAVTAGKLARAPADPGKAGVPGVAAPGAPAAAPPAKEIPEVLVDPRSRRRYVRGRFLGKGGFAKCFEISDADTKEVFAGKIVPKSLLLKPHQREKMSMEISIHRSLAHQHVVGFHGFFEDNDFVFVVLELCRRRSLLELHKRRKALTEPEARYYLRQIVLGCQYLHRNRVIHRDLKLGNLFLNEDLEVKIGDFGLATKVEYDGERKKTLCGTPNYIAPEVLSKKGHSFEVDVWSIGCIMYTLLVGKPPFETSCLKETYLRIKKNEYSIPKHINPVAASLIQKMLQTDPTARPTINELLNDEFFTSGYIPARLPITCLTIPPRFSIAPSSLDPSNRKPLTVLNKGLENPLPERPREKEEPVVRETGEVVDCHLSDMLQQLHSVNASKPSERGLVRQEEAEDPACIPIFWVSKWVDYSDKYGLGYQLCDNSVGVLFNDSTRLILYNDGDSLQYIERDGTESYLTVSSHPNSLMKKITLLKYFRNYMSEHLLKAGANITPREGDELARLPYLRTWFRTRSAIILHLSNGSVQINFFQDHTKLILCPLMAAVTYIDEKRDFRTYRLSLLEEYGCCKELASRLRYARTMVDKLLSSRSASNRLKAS

With `CC[C@@H]1C(=O)N(C)c2cnc(Nc3ccc(C(=O)NC4CCC(N5CCC(CNc6ccc(C7CCC(=O)NC7=O)cc6)CC5)CC4)cc3OC)nc2N1C1CCCC1` (stereo partly drawn) [Compound 2, 4-(((R)-8-cyclopentyl-7-ethyl-5-methyl-6-oxo-5,6,7,8-tetrahydropteridin-2-yl)amino)-N-((1r,4R)-4-(4-(((4-(2,6-dioxopiperidin-3-yl)phenyl)amino)methyl)piperidin-1-yl)cyclohexyl)-3-methoxybenzamide], the half-inhibitory concentration (IC50) (with NCI-H69 (H69) cell line; in assay [1]) was less than 20 nM in each case. The “Value (luminescence value, PLK1-HiBit)” value at PLK1 is recorded as 0.129.
As for `CC[C@@H]1C(=O)N(C)c2cnc(Nc3ccc(C(=O)NC4CCC(N5CCN(CCNc6cccc7c6CN(C6CCC(=O)NC6=O)C7=O)CC5)CC4)cc3OC)nc2N1C1CCCC1` (stereo partly drawn) [Compound 5, 4-(((R)-8-cyclopentyl-7-ethyl-5-methyl-6-oxo-5,6,7,8-tetrahydropteridin-2-yl)amino)-N-((1r,4R)-4-(4-(2-((2-(2,6-dioxopiperidin-3-yl)-1-oxoisoindolin-4-yl)amino)ethyl)piperazin-1-yl)cyclohexyl)-3-methoxybenzamide], the IC50 (with NCI-H69 (H69) cell line; in assay [1]) was less than 20 nM in each case. The “Value (luminescence value, PLK1-HiBit)” value at PLK1 was 0.376.
For `CC[C@@H]1C(=O)N(C)c2cnc(Nc3ccc(C(=O)NC4CCN(C(=O)CCN5CCN(c6ccc(NC7CCC(=O)NC7=O)cc6)CC5)CC4)cc3OC)nc2N1C1CCCC1` (stereo partly drawn) [Compound 24, 4-(((R)-8-cyclopentyl-7-ethyl-5-methyl-6-oxo-5,6,7,8-tetrahydropteridin-2-yl)amino)-N-(1-(3-(4-(4-((2,6-dioxopiperidin-3-yl)amino)phenyl)piperazin-1-yl)propanoyl)piperidin-4-yl)-3-methoxybenzamide], the concentration for half-maximal inhibition (IC50) (in the assay on NCI-H69 (H69) cell line; in assay [1]) was less than 20 nM in each case. Further, at PLK1, the “Value (luminescence value, PLK1-HiBit)” value is given as 0.206.
Turning to `CC[C@@H]1C(=O)N(C)c2cnc(Nc3ccc(-c4nnc(CNC5CCC(N6CCC(NCc7ccc(C8CCC(=O)NC8=O)cc7)CC6)CC5)o4)cc3OC)nc2N1C1CCCC1` (stereo partly drawn) [Compound 16, 3-(4-(((1-((1r,4r)-4-(((5-(4-(((R)-8-cyclopentyl-7-ethyl-5-methyl-6-oxo-5,6,7,8-tetrahydropteridin-2-yl)amino)-3-methoxyphenyl)-1,3,4-oxadiazol-2-yl)methyl)amino)cyclohexyl)piperidin-4-yl)amino)methyl)phenyl)piperidine-2,6-dione], the values for the concentration for half-maximal inhibition (IC50) (with NCI-H69 (H69) cell line; in assay [1]) were not above 100 nM and not above 50 nM, respectively. The “Value (luminescence value, PLK1-HiBit)” value at PLK1 was 0.263.
On to `CC[C@@H]1C(=O)N(C)c2cnc(Nc3ccc(C(=O)NCC4CCN(CC5CCN(c6ccc(NC7CCC(=O)NC7=O)cc6)CC5)CC4)cc3OC)nc2N1C1CCCC1` (stereo partly drawn) [Compound 13, 4-(((R)-8-cyclopentyl-7-ethyl-5-methyl-6-oxo-5,6,7,8-tetrahydropteridin-2-yl)amino)-N-((1-((1-(4-((2,6-dioxopiperidin-3-yl)amino)phenyl)piperidin-4-yl)methyl)piperidin-4-yl)methyl)-3-methoxybenzamide], for which the results for the IC50 (in the assay on NCI-H69 (H69) cell line; in assay [1]) were not above 100 nM and less than 20 nM, respectively. Moreover, the “Value (luminescence value, PLK1-HiBit)” value at PLK1 came to 0.165.
As for `CC[C@@H]1C(=O)N(C)c2cnc(Nc3ccc(C(=O)NC4CCN(C(=O)C(N)CN5CCN(c6ccc(C7CCC(=O)NC7=O)cc6)CC5)CC4)cc3OC(F)(F)F)nc2N1C1CCCC1` (stereo partly drawn) [Compound 10, N-(1-(2-amino-3-(4-(4-(2,6-dioxopiperidin-3-yl)phenyl)piperazin-1-yl)propanoyl)piperidin-4-yl)-4-(((R)-8-cyclopentyl-7-ethyl-5-methyl-6-oxo-5,6,7,8-tetrahydropteridin-2-yl)amino)-3-(trifluoromethoxy)benzamide], the results for the concentration for half-maximal inhibition (IC50) (in the assay on NCI-H69 (H69) cell line; in assay [1]) were not above 100 nM and not above 50 nM, respectively. Besides, the “Value (luminescence value, PLK1-HiBit)” value at PLK1 worked out at 0.282.
Take `CC[C@@H]1C(=O)N(C)c2cnc(Nc3ccc(-c4nnc(CNC5CCN(C(=O)C(N)CN6CCN(c7ccc(C8CCC(=O)NC8=O)cc7)CC6)CC5)o4)cc3OC)nc2N1C1CCCC1` (stereo partly drawn) [Compound 15, 3-(4-(4-(2-amino-3-(4-(((5-(4-(((R)-8-cyclopentyl-7-ethyl-5-methyl-6-oxo-5,6,7,8-tetrahydropteridin-2-yl)amino)-3-methoxyphenyl)-1,3,4-oxadiazol-2-yl)methyl)amino)piperidin-1-yl)-3-oxopropyl)piperazin-1-yl)phenyl)piperidine-2,6-dione]: the results for the 50% inhibitory concentration (IC50) (in the assay on NCI-H69 (H69) cell line; in assay [1]) were not above 100 nM and not above 50 nM, respectively. Besides, the “Value (luminescence value, PLK1-HiBit)” value at PLK1 was determined as 0.345.
The like results for `COc1cc(C(=O)NC2CCC(NCC3CCN(c4ccc(C5CCC(=O)NC5=O)cc4F)CC3)CC2)ccc1Nc1ncc2c(n1)N(C1CCCC1)CC(F)(F)C(=O)N2C` (stereo not drawn) [Compound 30, 4-((9-cyclopentyl-7,7-difluoro-5-methyl-6-oxo-6,7,8,9-tetrahydro-5H-pyrimido[4,5-b][1,4]diazepin-2-yl)amino)-N-((1r,4r)-4-(((1-(4-(2,6-dioxopiperidin-3-yl)-2-fluorophenyl)piperidin-4-yl)methyl)amino)cyclohexyl)-3-methoxybenzamide] were, in that order, not above 50 nM, not above 50 nM and 0.250.
As to `CC[C@@H]1C(=O)N(C)c2cnc(Nc3ccc(C(=O)NN4CCC(C5CCN(CCc6ccc(C7CCC(=O)NC7=O)cc6)CC5)CC4)cc3OC)nc2N1C1CCCC1` (stereo partly drawn) [Compound 23, 4-(((R)-8-cyclopentyl-7-ethyl-5-methyl-6-oxo-5,6,7,8-tetrahydropteridin-2-yl)amino)-N-(1′-(4-(2,6-dioxopiperidin-3-yl)phenethyl)-[4,4′-bipiperidin]-1-yl)-3-methoxy benzamide], the 50% inhibitory concentration (IC50) (in the assay with NCI-H69 (H69) cell line; in assay [1]) was less than 20 nM in each case. Moreover, the “Value (luminescence value, PLK1-HiBit)” value on PLK1 came out at 0.186.
With `CC[C@@H]1C(=O)N(C)c2cnc(Nc3ccc(C(=O)NC4CCC(N5CCN(CCc6ccc(NC7CCC(=O)NC7=O)cc6)CC5)CC4)cc3OC)nc2N1C1CCCC1` (stereo partly drawn) [Compound 4, 4-(((R)-8-cyclopentyl-7-ethyl-5-methyl-6-oxo-5,6,7,8-tetrahydropteridin-2-yl)amino)-N-((1r,4R)-4-(4-(4-((2,6-dioxopiperidin-3-yl)amino)phenethyl)piperazin-1-yl)cyclohexyl)-3-methoxybenzamide], the IC50 (in the assay with NCI-H69 (H69) cell line; in assay [1]) was less than 20 nM throughout. Besides, the “Value (luminescence value, PLK1-HiBit)” value at PLK1 is 0.157.
As for `CC[C@@H]1C(=O)N(C)c2cnc(Nc3ccc(C(=O)NC4CCC(N5CCC(CNc6cccc7c6CN(C6CCC(=O)NC6=O)C7=O)CC5)CC4)cc3OC)nc2N1C1CCCC1` (stereo partly drawn) [Compound 6, 4-(((R)-8-cyclopentyl-7-ethyl-5-methyl-6-oxo-5,6,7,8-tetrahydropteridin-2-yl)amino)-N-((1r,4R)-4-(4-(((2-(2,6-dioxopiperidin-3-yl)-1-oxoisoindolin-4-yl)amino)methyl)piperidin-1-yl)cyclohexyl)-3-methoxybenzamide], the half-inhibitory concentration (IC50) is not above 50 nM with NCI-H69 (H69) cell line and less than 20 nM in assay [1]. For the same compound, on PLK1, the “Value (luminescence value, PLK1-HiBit)” value is 0.286.

The term IC50 denotes the concentration at which inhibition is half-maximal. A high value points to weaker potency.
